Experimental data as given in patent publication US12502384B2, “Pharmaceutical composition containing nitroxoline prodrug, and preparation method and application therefor” (Jiangsu Yahong Meditech Co., Ltd., priority 2020, dated 2025).

Assay: Stability test: impurity content by HPLC (self-control)
Type: physicochemical
Settings: for Impurity (%)/RRT relative retention time 0.71 / Impurity (%)/RRT relative retention time 0.78 / Impurity (%)/RRT relative retention time 0.83 / Impurity (%)/RRT relative retention time 0.89 / Impurity (%)/RRT relative retention time 0.9 / Impurity (%)/RRT relative retention time 1.06 / Impurity (%)/RRT relative retention time 1.95 / Impurity (%)/RRT relative retention time 0.93 / Impurity (%)/RRT relative retention time 1.97: — = not detected
Protocol: The impurity content of the immediate-release tablets obtained in Examples 1, 3, and 8 was determined respectively to evaluate the stability, and the steps were as follows:
1. Preparation Method for Test Solution I and Test Solution II
About 25 mg of a batch of nitroxoline prodrug was added to a 50 mL volumetric flask, followed by the addition of about 30 mL of acetonitrile. The resulting solution was ultrasonicated for 10 minutes, cooled to room temperature, diluted with acetonitrile to the constant volume, and mixed well. An appropriate amount of the above solution was filtered to obtain test solution I.
According to the above method, another batch of nitroxoline prodrug was used to obtain test solution II.
Test solution I was used to study the impurity content under normal temperature and different storage times (0 h, 6 h, 12 h, 18 h, 24 h), and the impurity content under 2 to 8° C. and a storage time of 24 hours.
Test solution II was used to study the impurity content under two different stability conditions (intermediate condition of 30° C./65% RH and accelerated condition of 40° C./75% RH, as shown in Table 2).
2. […]
3. Preparation Method for 0.2% Self-Control Solution
2 mL of test solution I, test solution II or test solution III was added to a 100 mL volumetric flask, and diluted with acetonitrile to the constant volume. 1 mL of the resulting solution was added to a 10 mL volumetric flask, diluted with acetonitrile to the constant volume, and mixed well to obtain the desired solution.
4. Determination of Impurity Content
(§1) Test solution I was placed at room temperature, and samples were collected respectively at 0 h, 6 h, 12 h, 18 h, 24 h. 0.2% self-control solution was formulated. Samples were injected respectively, and the single impurity content and total impurity content in test solution I at each time point were calculated according to the self-control.
as §1, with “in a refrigerator (2 to 8° C.),” for “at room temperature,”, “collected” for “collected respectively”, “at” for “at 0 h, 6 h, 12 h, 18 h,”, “this” for “each”
Samples were collected from Test solution II at 0 day, at one month under the intermediate condition (30° C./65% RH) and at one month under the accelerated condition (40° C./75% RH). 0.2% self-control solution was formulated. Samples were injected respectively, and the single impurity content and total impurity content in test solution II at this time point were calculated according to the self-control. […]

[1] = Accelerated condition (40° C./75% RH) one month
[2] = Intermediate condition (30° C./65% RH) one month

Total impurity (%) [1]: 1.038%
Impurity (%)/RRT relative retention time 0.71 [1]: 0.005%
Impurity (%)/RRT relative retention time 0.78 [1]: 0.792%
Impurity (%)/RRT relative retention time 0.83 [1]: 0.02%
Impurity (%)/RRT relative retention time 0.89 [1]: 0.018%
Impurity (%)/RRT relative retention time 0.9 [1]: 0.012%
Impurity (%)/RRT relative retention time 1.06 [1]: 0.173%
Impurity (%)/RRT relative retention time 1.95 [1]: 0.018%
Total impurity (%) [2]: 0.333%
Impurity (%)/RRT relative retention time 0.78 [2]: 0.117%
Impurity (%)/RRT relative retention time 0.89 [2]: 0.018%
Impurity (%)/RRT relative retention time 0.9 [2]: 0.011%
Impurity (%)/RRT relative retention time 1.06 [2]: 0.169%
Impurity (%)/RRT relative retention time 1.95 [2]: 0.018%
Total impurity (%) (Storage time 0 h(RT)): 0.192%
Impurity (%)/RRT relative retention time 0.89 (Storage time 0 h(RT)): 0.055%
Impurity (%)/RRT relative retention time 0.9 (Storage time 0 h(RT)): 0.055%
Impurity (%)/RRT relative retention time 0.93 (Storage time 0 h(RT)): 0.082%
Total impurity (%) (Storage time 0 day): 0.261%
Impurity (%)/RRT relative retention time 0.78 (Storage time 0 day): 0.042%
Impurity (%)/RRT relative retention time 0.89 (Storage time 0 day): 0.019%
Impurity (%)/RRT relative retention time 0.9 (Storage time 0 day): 0.011%
Impurity (%)/RRT relative retention time 1.06 (Storage time 0 day): 0.17%
Impurity (%)/RRT relative retention time 1.95 (Storage time 0 day): 0.019%
Total impurity (%) (Storage time 6 h(RT)): 0.739%
Impurity (%)/RRT relative retention time 0.71 (Storage time 6 h(RT)): 0.18%
Impurity (%)/RRT relative retention time 0.89 (Storage time 6 h(RT)): 0.059%
Impurity (%)/RRT relative retention time 0.9 (Storage time 6 h(RT)): 0.069%
Impurity (%)/RRT relative retention time 0.93 (Storage time 6 h(RT)): 0.091%
Impurity (%)/RRT relative retention time 1.95 (Storage time 6 h(RT)): 0.089%
Impurity (%)/RRT relative retention time 1.97 (Storage time 6 h(RT)): 0.251%
Total impurity (%) (Storage time 12 h(RT)): 0.733%
Impurity (%)/RRT relative retention time 0.71 (Storage time 12 h(RT)): 0.176%
Impurity (%)/RRT relative retention time 0.89 (Storage time 12 h(RT)): 0.053%
Impurity (%)/RRT relative retention time 0.9 (Storage time 12 h(RT)): 0.063%
Impurity (%)/RRT relative retention time 0.93 (Storage time 12 h(RT)): 0.092%
Impurity (%)/RRT relative retention time 1.95 (Storage time 12 h(RT)): 0.093%
Impurity (%)/RRT relative retention time 1.97 (Storage time 12 h(RT)): 0.256%
Total impurity (%) (Storage time 18 h(RT)): 1.035%
Impurity (%)/RRT relative retention time 0.71 (Storage time 18 h(RT)): 0.174%
Impurity (%)/RRT relative retention time 0.83 (Storage time 18 h(RT)): 0.377%
Impurity (%)/RRT relative retention time 0.89 (Storage time 18 h(RT)): 0.054%
Impurity (%)/RRT relative retention time 0.9 (Storage time 18 h(RT)): 0.057%
Impurity (%)/RRT relative retention time 0.93 (Storage time 18 h(RT)): 0.092%
Impurity (%)/RRT relative retention time 1.95 (Storage time 18 h(RT)): 0.065%
Impurity (%)/RRT relative retention time 1.97 (Storage time 18 h(RT)): 0.216%
Total impurity (%) (Storage time 24 h(2-8° C.)): 0.608%
Impurity (%)/RRT relative retention time 0.71 (Storage time 24 h(2-8° C.)): 0.175%
Impurity (%)/RRT relative retention time 0.83 (Storage time 24 h(2-8° C.)): 0.189%
Impurity (%)/RRT relative retention time 0.89 (Storage time 24 h(2-8° C.)): 0.053%
Impurity (%)/RRT relative retention time 0.9 (Storage time 24 h(2-8° C.)): 0.064%
Impurity (%)/RRT relative retention time 0.93 (Storage time 24 h(2-8° C.)): 0.088%
Impurity (%)/RRT relative retention time 1.06 (Storage time 24 h(2-8° C.)): 0.039%
Total impurity (%) (Storage time 24 h(RT)): 1.254%
Impurity (%)/RRT relative retention time 0.71 (Storage time 24 h(RT)): 0.177%
Impurity (%)/RRT relative retention time 0.83 (Storage time 24 h(RT)): 0.524%
Impurity (%)/RRT relative retention time 0.89 (Storage time 24 h(RT)): 0.054%
Impurity (%)/RRT relative retention time 0.9 (Storage time 24 h(RT)): 0.053%
Impurity (%)/RRT relative retention time 0.93 (Storage time 24 h(RT)): 0.09%
Impurity (%)/RRT relative retention time 1.95 (Storage time 24 h(RT)): 0.097%
Impurity (%)/RRT relative retention time 1.97 (Storage time 24 h(RT)): 0.259%
SMILES: CC(C)C(=O)N1CCC[C@H]1C(=O)OCOc1ccc([N+](=O)[O-])c2cccnc12 [nitroxoline prodrug, (S)-(5-nitroquinolin-8-yloxy)methyl 1-isopropionylpyrrolidine-2-carboxylate]
